Measured values: ChEMBL document CHEMBL1201862, “PubChem BioAssay data set” (2004)
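Dose response: 5 concentrations. Exposure: 48 h. Format: 96-well plates. Endpoint: linear interpolation; highest concentration if not reached. Abbreviation: GI50, concentration required for 50% inhibition of growth.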 Activity calls are given as the source filed them. Rule as the data show it: active = GI50 up to about 1.1 µM and inactive = higher.

How the values were obtained:
Experiment in all cases: growth of human tumour cells (NCI), 48 h
K562 = tested on: K562
SN12C = tested on: SN12C
CAKI-1 = tested on: CAKI-1
IGROV-1 = tested on: IGROV-1
OVCAR-5 = tested on: OVCAR-5
SK-MEL-2 = tested on: SK-MEL-2
SR = tested on: SR
UO-31 = tested on: UO-31
HCT-15 = tested on: HCT-15
OVCAR-8 = tested on: OVCAR-8
MDA-MB-435 = tested on: MDA-MB-435
A498 = tested on: A498
NCI-H460 = tested on: NCI-H460
SF-268 = tested on: SF-268
OVCAR-3 = tested on: OVCAR-3
HL-60 = tested on: HL-60
HOP-62 = tested on: HOP-62
HCC 2998 = tested on: HCC 2998
HOP-92 = tested on: HOP-92
RXF 393 = tested on: RXF 393

SMILES	GI50 (K562)	GI50 (SN12C)	GI50 (CAKI-1)	GI50 (IGROV-1)	GI50 (OVCAR-5)	GI50 (SK-MEL-2)	GI50 (SR)	GI50 (UO-31)	GI50 (HCT-15) [µM]	GI50 (OVCAR-8)	GI50 (MDA-MB-435)	GI50 (A498)	GI50 (NCI-H460)	GI50 (SF-268)	GI50 (OVCAR-3)	GI50 (HL-60)	GI50 (HOP-62)	GI50 (HCC 2998)	GI50 (HOP-92)	GI50 (RXF 393)
COc1cc2nc(-c3cccs3)nc(Cl)c2cc1OC	69.5 µM (inactive)	> 100 µM (inactive)	80.2 µM (inactive)	> 100 µM (inactive)	> 100 µM (inactive)	> 100 µM (inactive)	0.339 µM (active)	> 100 µM (inactive)	> 100	> 100 µM (inactive)	> 100 µM (inactive)	19.8 µM (inactive)	> 100 µM (inactive)	> 100 µM (inactive)	93.3 µM (inactive)	> 100 µM (inactive)	> 100 µM (inactive)	–	–	–
Nc1cc2[nH]c(=O)c3cc(Cl)ccc3c2cc1Cl	23 µM (inactive)	10.2 µM (inactive)	8.38 µM (inactive)	4.07 µM (inactive)	15.6 µM (inactive)	25 µM (inactive)	2.44 µM (inactive)	10.2 µM (inactive)	8.17	3 µM (inactive)	14.3 µM (inactive)	–	5 µM (inactive)	11.3 µM (inactive)	12.4 µM (inactive)	32.4 µM (inactive)	16.8 µM (inactive)	23.7 µM (inactive)	–	–
CC(=O)Nc1cc(C(=O)Nc2cc(C(=O)Nc3cc(C(=O)Nc4cc(C(=O)Nc5cc(C(=O)NCCC(=O)NCCCN(C)C)n(C)c5)n(C)c4)n(C)c3)n(C)c2)n(C)c1	58.7 µM (inactive)	> 100 µM (inactive)	19.5 µM (inactive)	> 100 µM (inactive)	> 100 µM (inactive)	> 100 µM (inactive)	–	> 100 µM (inactive)	> 100	> 100 µM (inactive)	36.8 µM (inactive)	> 100 µM (inactive)	> 100 µM (inactive)	71.3 µM (inactive)	> 100 µM (inactive)	41.2 µM (inactive)	> 100 µM (inactive)	50.4 µM (inactive)	33.5 µM (inactive)	> 100 µM (inactive)
CC(C)(C)C(=O)C(CC(=O)c1ccccc1)C(=O)C(C)(C)C	> 100 µM (inactive)	> 100 µM (inactive)	> 100 µM (inactive)	> 100 µM (inactive)	> 100 µM (inactive)	> 100 µM (inactive)	–	> 100 µM (inactive)	> 100	> 100 µM (inactive)	> 100 µM (inactive)	> 100 µM (inactive)	> 100 µM (inactive)	83.9 µM (inactive)	> 100 µM (inactive)	> 100 µM (inactive)	99.1 µM (inactive)	> 100 µM (inactive)	44.7 µM (inactive)	–
CC(=O)N1c2ccccc2C2=NN=C(N(C)C)SC21 (centres undefined)	3.37 µM (inactive)	2.08 µM (inactive)	–	–	4.24 µM (inactive)	2.18 µM (inactive)	3.28 µM (inactive)	1.45 µM (inactive)	0.838	2.65 µM (inactive)	6.56 µM (inactive)	3.17 µM (inactive)	2.46 µM (inactive)	1.82 µM (inactive)	3.05 µM (inactive)	2.14 µM (inactive)	3.8 µM (inactive)	2.72 µM (inactive)	–	–
N#CC(C#N)=C1C(=O)NC(N)=C1C#N	> 100 µM (inactive)	> 100 µM (inactive)	> 100 µM (inactive)	> 100 µM (inactive)	> 100 µM (inactive)	> 100 µM (inactive)	–	> 100 µM (inactive)	> 100	> 100 µM (inactive)	> 100 µM (inactive)	> 100 µM (inactive)	> 100 µM (inactive)	> 100 µM (inactive)	–	> 100 µM (inactive)	> 100 µM (inactive)	> 100 µM (inactive)	> 100 µM (inactive)	> 100 µM (inactive)
Oc1ccc2c(c1)CCc1c-2n(CCN2CCOCC2)c2ccc(O)cc12	41.6 µM (inactive)	> 100 µM (inactive)	24.8 µM (inactive)	11 µM (inactive)	78.3 µM (inactive)	27.1 µM (inactive)	> 100 µM (inactive)	10.4 µM (inactive)	36.1	20.2 µM (inactive)	44.4 µM (inactive)	14.9 µM (inactive)	33.2 µM (inactive)	31.8 µM (inactive)	48.6 µM (inactive)	55.6 µM (inactive)	43.4 µM (inactive)	–	–	30.5 µM (inactive)
Cn1c(=O)[nH]n(-c2ccc3ccccc3c2)c1=O	> 100 µM (inactive)	> 100 µM (inactive)	> 100 µM (inactive)	> 100 µM (inactive)	> 100 µM (inactive)	> 100 µM (inactive)	–	> 100 µM (inactive)	> 100	> 100 µM (inactive)	> 100 µM (inactive)	> 100 µM (inactive)	> 100 µM (inactive)	> 100 µM (inactive)	> 100 µM (inactive)	> 100 µM (inactive)	–	> 100 µM (inactive)	> 100 µM (inactive)	> 100 µM (inactive)
C=C1CC/C=C(/C(=O)O)CC[C@H]2[C@@H]1CC2(C)C	> 100 µM (inactive)	> 100 µM (inactive)	> 100 µM (inactive)	> 100 µM (inactive)	> 100 µM (inactive)	> 100 µM (inactive)	–	> 100 µM (inactive)	> 100	–	> 100 µM (inactive)	> 100 µM (inactive)	> 100 µM (inactive)	> 100 µM (inactive)	> 100 µM (inactive)	> 100 µM (inactive)	> 100 µM (inactive)	> 100 µM (inactive)	70 µM (inactive)	> 100 µM (inactive)
CCOC(=O)C1(C/C=C/CCl)CCCC1=O (centres undefined)	–	24.1 µM (inactive)	29.6 µM (inactive)	18.3 µM (inactive)	17.8 µM (inactive)	19 µM (inactive)	–	20 µM (inactive)	18.9	20.8 µM (inactive)	20.3 µM (inactive)	25.2 µM (inactive)	30.1 µM (inactive)	25.4 µM (inactive)	–	38.2 µM (inactive)	20.5 µM (inactive)	–	–	16.8 µM (inactive)
Cc1cc(Br)c(O)c(-c2cscn2)c1	7.64 µM (inactive)	10.5 µM (inactive)	24.2 µM (inactive)	22.9 µM (inactive)	20.6 µM (inactive)	19.3 µM (inactive)	–	12.7 µM (inactive)	5.57	10.9 µM (inactive)	20.7 µM (inactive)	23.7 µM (inactive)	21.4 µM (inactive)	–	52.5 µM (inactive)	3.66 µM (inactive)	22.5 µM (inactive)	19 µM (inactive)	19.5 µM (inactive)	–
COc1cc2c(cc1OC)C(=O)/C(=C/c1cc(C)cc(C)c1)C2	0.0232 µM (active)	0.318 µM (active)	–	0.0908 µM (active)	1.09 µM (active)	0.184 µM (active)	–	1.95 µM (inactive)	0.0296	0.175 µM (active)	< 0.0146 µM (active)	0.131 µM (active)	0.06 µM (active)	12.9 µM (inactive)	0.0324 µM (active)	< 0.0244 µM (active)	0.127 µM (active)	0.0601 µM (active)	3.29 µM (inactive)	0.0736 µM (active)
